# Measurements published in ChEMBL document CHEMBL4346666, “Synthesis, mitochondrial localization of fluorescent derivatives of cinnamamide as anticancer agents” (Eur J Med Chem, 2019).
# pIC50: −log10 of the molar value. Active and inactive are the calls of the source. The calls are words filed in the database; no cut-off is given here.
# Tests used:
# HL-60 [1] = experiment: Cytotoxicity against human HL60 cells assessed as reduction in cell viability measured after 48 hrs in presence of ROS scavenger N-acetyl-L-cysteine and VE by MTT assay; type: functional, cell-based
# HL-60 [2] = experiment: Induction of ROS generation in human HL60 cells after 6 hrs by DCFH-DA probe based flow cytometry analysis; type: functional, cell-based
# [3] = Drug uptake in human HL60 cells by flow cytometry; type: ADME, cell-based; details: hl-60
# [4] = Drug uptake in human HL60 cells at 20 uM measured after 0.5 hrs by spectrofluorimetric analysis relative to PBMC cells; type: ADME, cell-based; details: hl-60, 0.5 h
# [5] = Drug uptake in human HL60 cells at 20 uM measured after 1.5 hrs by spectrofluorimetric analysis relative to PBMC cells; type: ADME, cell-based; details: hl-60, 1.5 h
# HepG2 = experiment: Cytotoxicity against human HepG2 cells assessed as cell viability at 20 uM measured after 48 hrs by MTT assay relative to control; type: functional; details: HepG2, 48 h, read-out: Activity
# HeLa = experiment: Cytotoxicity against human HeLa cells assessed as cell viability at 20 uM measured after 48 hrs by MTT assay relative to control; type: functional; details: read-out: Activity
# MCF7 = experiment: Cytotoxicity against human MCF7 cells assessed as cell viability at 20 uM measured after 48 hrs by MTT assay relative to control; type: functional; details: MCF7, 48 h, read-out: Activity
# HL-60 [6] = experiment: Cytotoxicity against human HL60 cells assessed as cell viability at 20 uM measured after 48 hrs by MTT assay relative to control; type: functional; details: HL-60, 48 h, read-out: Activity
# HL-60 [7] = experiment: Cytotoxicity against human HL60 cells assessed as reduction in cell viability measured after 48 hrs by MTT assay; type: functional, cell-based; details: HL-60, 48 h
# PBMC = experiment: Cytotoxicity against human PBMC assessed as reduction in cell viability measured after 48 hrs by MTT assay; type: cell-based
# [8] = Drug localization in mitochondria of human HL60 cells at 1 uM measured after 30 mins by […] dye-based confocal microscopy; type: ADME; details: hl-60, 0.5 h
# [9] = Drug localization in mitochondria of human HepG2 cells at 1 uM measured after 30 mins by […] dye-based confocal microscopy; type: ADME; details: hepg2, 0.5 h
# HL-60 [10] = experiment: Induction of mitochondrial dysfunction in human HL60 cells assessed as decrease in mitochondrial membrane potential at 10 uM measured after 48 hrs by TMRE probe-based flow cytometry relative to control; type: functional
# HL-60 [11] = experiment: Induction of mitochondrial dysfunction in human HL60 cells assessed as decrease in mitochondrial membrane potential at 15 uM measured after 48 hrs by TMRE probe-based flow cytometry relative to control; type: functional
# HL-60 [12] = experiment: Induction of mitochondrial dysfunction in human HL60 cells assessed as decrease in mitochondrial membrane potential at 20 uM measured after 48 hrs by TMRE probe-based flow cytometry relative to control; type: functional
# HL-60 [13] = experiment: Induction of cell cycle arrest in human HL60 cells assessed as accumulation at S-phase at 10 uM after 48 hrs by propidium iodide staining based flow cytometry (reference value: 14.88%); type: functional
# HL-60 [14] = experiment: Induction of cell cycle arrest in human HL60 cells assessed as accumulation at S phase at 15 uM after 48 hrs by propidium iodide staining based flow cytometry (reference value: 14.88%); type: functional
# HL-60 [15] = experiment: Induction of cell cycle arrest in human HL60 cells assessed as accumulation at S-phase at 20 uM after 48 hrs by propidium iodide staining-based flow cytometry (reference value: 14.88%); type: functional
# HL-60 [16] = experiment: Induction of cell cycle arrest in human HL60 cells assessed as accumulation at sub G0/G1 phase at 10 uM after 48 hrs by propidium iodide staining based flow cytometry (reference value: 0%); type: functional
# HL-60 [17] = experiment: Induction of cell cycle arrest in human HL60 cells assessed as accumulation at sub G0/G1 phase at 15 uM after 48 hrs by propidium iodide staining based flow cytometry (reference value: 0%)l; type: functional
# HL-60 [18] = experiment: Induction of cell cycle arrest in human HL60 cells assessed as accumulation at sub G0/G1 phase at 20 uM after 48 hrs by propidium iodide staining based flow cytometry (reference value: 0%); type: functional
# [19] = Binding affinity to cysteamine residue assessed as hypochromic effect at 20 uM incubated for up to 1 hr by UV-Vis absorption spectrophotometric method
# HL-60 [20] = experiment: Induction of cell cycle arrest in human HL60 cells assessed as accumulation at G0/G1 phase at 10 uM after 48 hrs by propidium iodide staining based flow cytometry (reference value: 83.52%); type: functional
# HL-60 [21] = experiment: Induction of cell cycle arrest in human HL60 cells assessed as accumulation at G0/G1 phase at 15 uM after 48 hrs by propidium iodide staining based flow cytometry (reference value: 83.52%); type: functional
# HL-60 [22] = experiment: Induction of cell cycle arrest in human HL60 cells assessed as accumulation at G0/G1 phase at 20 uM after 48 hrs by propidium iodide staining based flow cytometry (reference value: 83.52%); type: functional
# HL-60 [23] = experiment: Induction of cell cycle arrest in human HL60 cells assessed as accumulation at G2/M phase at 10 uM after 48 hrs by propidium iodide staining based flow cytometry (reference value: 1.60%); type: functional
# HL-60 [24] = experiment: Induction of cell cycle arrest in human HL60 cells assessed as accumulation at G2/M phase at 15 uM after 48 hrs by propidium iodide staining based flow cytometry (reference value: 1.60%); type: functional
# HL-60 [25] = experiment: Induction of cell cycle arrest in human HL60 cells assessed as accumulation at G2/M phase at 20 uM after 48 hrs by propidium iodide staining based flow cytometry (reference value: 1.60%); type: functional
# HL-60 [26] = experiment: Induction of apoptosis in human HL60 cells assessed as early apoptotic cells at 10 uM after 48 hrs by Annexin-V-FITC/propidium iodide staining based flow cytometry (reference value: 0.71%); type: functional
# HL-60 [27] = experiment: Induction of apoptosis in human HL60 cells assessed as early apoptotic cells at 15 uM after 48 hrs by Annexin-V-FITC/propidium iodide staining based flow cytometry (reference value: 0.71%); type: functional
# HL-60 [28] = experiment: Induction of apoptosis in human HL60 cells assessed as early apoptotic cells at 20 uM after 48 hrs by Annexin-V-FITC/propidium iodide staining based flow cytometry (reference value: 0.71%); type: functional
# HL-60 [29] = experiment: Induction of apoptosis in human HL60 cells assessed as late apoptotic cells or necrotic cells at 10 uM after 48 hrs by Annexin-V-FITC/propidium iodide staining based flow cytometry (reference value: 0.39%); type: functional
# HL-60 [30] = experiment: Induction of apoptosis in human HL60 cells assessed as late apoptotic cells or necrotic cells at 15 uM after 48 hrs by Annexin-V-FITC/propidium iodide staining based flow cytometry (reference value: 0.39%); type: functional
# HL-60 [31] = experiment: Induction of apoptosis in human HL60 cells assessed as late apoptotic cells or necrotic cells at 20 uM after 48 hrs by Annexin-V-FITC/propidium iodide staining based flow cytometry (reference value: 0.39%); type: functional
# [32] = Drug uptake in human HL60 cells at 20 uM measured after 3 hrs by spectrofluorimetric analysis relative to PBMC cells; type: ADME, cell-based; details: hl-60, 3 h
# HL-60 [33] = experiment: Induction of apoptosis in human HL60 cells assessed as increase in late apoptotic or necrotic cells after 48 hrs by Annexin-V-FITC/propidium iodide staining based flow cytometry relative to control; type: functional, cell-based
# [34] = Binding affinity to cysteamine residue at 1:1 to 5:1 stoichiometric ratio of cysteamine to compound incubated for up to 1 hr by UV-Vis absorption spectrophotometric method
# [35] = Binding affinity to cysteamine residue by ESI-MS analysis
# HL-60 [36] = experiment: Cell cycle arrest in human HL60 cells assessed as decrease in accumulation at G2/M phase after 48 hrs by propidium iodide staining based flow cytometry; type: functional
# HL-60 [37] = experiment: Cell cycle arrest in human HL60 cells assessed as decrease in accumulation at S phase after 48 hrs by propidium iodide staining based flow cytometry; type: functional
smiles,measurement,setting,value
CCN(CC)c1ccc2cc(C(=O)NCCNC(=O)/C(=C/c3cc(OC)c(OC)c(OC)c3)c3ccc(OC)c(OC)c3)c(=O)oc2c1,Activity,HL-60 [1],inactive
same,Activity,HL-60 [2],Dose-dependent effect
same,Drug uptake,[3],Tde and Dose-dependent effect
same,fold change (FC),[4],4.2
same,fold change (FC),[5],4.5
same,viability at 20 µM,HepG2,56.4%
same,viability at 20 µM,HeLa,53.8%
same,viability at 20 µM,MCF7,66.5%
same,viability at 20 µM,HL-60 [6],25.8%
same,pIC50,HL-60 [7],5.04
same,pIC50,PBMC,< 4.30
same,Drug uptake,[8],Active
same,Drug uptake,[9],Active
same,fold change (FC),HL-60 [10],0.76
same,fold change (FC),HL-60 [11],0.46
same,fold change (FC),HL-60 [12],0.29
same,Activity,HL-60 [13],19.94%
same,Activity,HL-60 [14],35.43%
same,Activity,HL-60 [15],55.59%
same,Activity,HL-60 [16],12.84%
same,Activity,HL-60 [17],24.1%
same,Activity,HL-60 [18],21.44%
same,Activity,[19],Active
same,Activity,HL-60 [20],65.71%
same,Activity,HL-60 [21],24.15%
same,Activity,HL-60 [22],2.69%
same,Activity,HL-60 [23],14.35%
same,Activity,HL-60 [24],40.42%
same,Activity,HL-60 [25],41.72%
same,Activity,HL-60 [26],2.15%
same,Activity,HL-60 [27],6.06%
same,Activity,HL-60 [28],3.75%
same,Activity,HL-60 [29],16.3%
same,Activity,HL-60 [30],38%
same,Activity,HL-60 [31],70.2%
same,fold change (FC),[32],8.9
same,Activity,HL-60 [33],Dose-dependent effect
same,Activity,[34],Active
same,Activity,[35],Active
same,Activity,HL-60 [36],Dose-dependent effect
same,Activity,HL-60 [37],Dose-dependent effect
